Data from patent US20050009005A1, “Methods of using quantitative lipid metabolome data” (Lipomics Technologies, Inc., priority 2001, published 2005).
Like-named read-outs stand apart in the source and are kept apart here.

Test system: de novo fatty acid synthesis
[1] = Adipose, CE, mean of treated mice
[2] = Adipose, FFA, mean of treated mice
[3] = Adipose, PL, mean of treated mice
[4] = Adipose, TAG, mean of treated mice
[5] = Heart, CE, mean of treated mice
[6] = Heart, FFA, mean of treated mice
[7] = Heart, PC, mean of treated mice
[8] = Heart, PS/I, mean of treated mice
[9] = Heart, TAG, mean of treated mice
[10] = Liver, CE, mean of treated mice

CN(CCOc1ccc(CC2SC(=O)NC2=O)cc1)c1ccccn1 (centres unmarked) [rosiglitazone]
14:0 (Adipose, CE, mean): 3.8 percentage of total fatty acids within each lipid class | 16:0 (Adipose, CE, mean): 10.9 percentage of total fatty acids within each lipid class | 16:1n7 (Adipose, CE, mean): 7.1 percentage of total fatty acids within each lipid class | 18:0 (Adipose, CE, mean): 3.8 percentage of total fatty acids within each lipid class | 18:1n7 (Adipose, CE, mean): 1.3 percentage of total fatty acids within each lipid class | 18:1n9 (Adipose, CE, mean): 31.8 percentage of total fatty acids within each lipid class | Saturates (Adipose, CE, mean): 24.3 percentage of total fatty acids within each lipid class | Total (Adipose, CE, mean): 100.0 percentage of total fatty acids within each lipid class | Total n7 (Adipose, CE, mean): 8.4 percentage of total fatty acids within each lipid class | Total n9 (Adipose, CE, mean): 33.7 percentage of total fatty acids within each lipid class | 14:0 [1]: 131.5 nanomoles per gram | 16:0 [1]: 361.1 nanomoles per gram | 16:1n7 [1]: 248.8 nanomoles per gram | 18:0 [1]: 128.3 nanomoles per gram | 18:1n7 [1]: 44.3 nanomoles per gram | 18:1n9 [1]: 1135.7 nanomoles per gram | Saturates [1]: 833.5 nanomoles per gram | Total n7 [1]: 293.1 nanomoles per gram | Total n9 [1]: 1202.9 nanomoles per gram | Total nMole of [1]: 3405.8 nanomoles per gram | 14:0 (Adipose, FFA, mean): 3.0 percentage of total fatty acids within each lipid class | 16:0 (Adipose, FFA, mean): 16.7 percentage of total fatty acids within each lipid class | 16:1n7 (Adipose, FFA, mean): 8.0 percentage of total fatty acids within each lipid class | 18:0 (Adipose, FFA, mean): 3.6 percentage of total fatty acids within each lipid class | 18:1n7 (Adipose, FFA, mean): 3.4 percentage of total fatty acids within each lipid class | 18:1n9 (Adipose, FFA, mean): 30.4 percentage of total fatty acids within each lipid class | Saturates (Adipose, FFA, mean): 23.9 percentage of total fatty acids within each lipid class | Total (Adipose, FFA, mean): 100.0 percentage of total fatty acids within each lipid class | Total n9 (Adipose, FFA, mean): 30.8 percentage of total fatty acids within each lipid class | 14:0 [2]: 391.9 nanomoles per gram | 16:0 [2]: 2241.1 nanomoles per gram | 16:1n7 [2]: 1073.7 nanomoles per gram | 18:0 [2]: 487.0 nanomoles per gram | 18:1n7 [2]: 461.5 nanomoles per gram | 18:1n9 [2]: 4055.1 nanomoles per gram | Saturates [2]: 3203.6 nanomoles per gram | Total n7 [2]: 1535.2 nanomoles per gram | Total n9 [2]: 4117.3 nanomoles per gram | Total nMole of [2]: 13373.4 nanomoles per gram | 14:0 (Adipose, PL, mean): 1.6 percentage of total fatty acids within each lipid class | 16:0 (Adipose, PL, mean): 18.8 percentage of total fatty acids within each lipid class | 16:1n7 (Adipose, PL, mean): 3.6 percentage of total fatty acids within each lipid class | 18:0 (Adipose, PL, mean): 13.7 percentage of total fatty acids within each lipid class | 18:1n7 (Adipose, PL, mean): 2.8 percentage of total fatty acids within each lipid class | 18:1n9 (Adipose, PL, mean): 18.0 percentage of total fatty acids within each lipid class | Saturates (Adipose, PL, mean): 36.3 percentage of total fatty acids within each lipid class | Total (Adipose, PL, mean): 100.0 percentage of total fatty acids within each lipid class | Total n7 (Adipose, PL, mean): 6.5 percentage of total fatty acids within each lipid class | Total n9 (Adipose, PL, mean): 19.2 percentage of total fatty acids within each lipid class | 14:0 [3]: 152.1 nanomoles per gram | 16:0 [3]: 1706.0 nanomoles per gram | 16:1n7 [3]: 338.8 nanomoles per gram | 18:0 [3]: 1240.0 nanomoles per gram | 18:1n7 [3]: 261.8 nanomoles per gram | 18:1n9 [3]: 1679.9 nanomoles per gram | Saturates [3]: 3281.6 nanomoles per gram | Total n7 [3]: 600.6 nanomoles per gram | Total n9 [3]: 1787.7 nanomoles per gram | Total nMole of [3]: 4559.5 nanomoles per gram | 14:0 (Adipose, TAG, mean): 1.8 percentage of total fatty acids within each lipid class | 16:0 (Adipose, TAG, mean): 22.5 percentage of total fatty acids within each lipid class | 16:1n7 (Adipose, TAG, mean): 7.3 percentage of total fatty acids within each lipid class | 18:0 (Adipose, TAG, mean): 1.5 percentage of total fatty acids within each lipid class | 18:1n7 (Adipose, TAG, mean): 3.2 percentage of total fatty acids within each lipid class | 18:1n9 (Adipose, TAG, mean): 30.5 percentage of total fatty acids within each lipid class | Saturates (Adipose, TAG, mean): 26.2 percentage of total fatty acids within each lipid class | Total (Adipose, TAG, mean): 100.0 percentage of total fatty acids within each lipid class | Total n7 (Adipose, TAG, mean): 10.5 percentage of total fatty acids within each lipid class | Total n9 (Adipose, TAG, mean): 30.8 percentage of total fatty acids within each lipid class | 14:0 [4]: 52712.2 nanomoles per gram | 16:0 [4]: 650079.8 nanomoles per gram | 16:1n7 [4]: 210006.6 nanomoles per gram | 18:0 [4]: 43888.4 nanomoles per gram | 18:1n7 [4]: 93310.6 nanomoles per gram | 18:1n9 [4]: 880178.1 nanomoles per gram | Saturates [4]: 755758.5 nanomoles per gram | Total n7 [4]: 303317.2 nanomoles per gram | Total n9 [4]: 891269.3 nanomoles per gram | Total nMole of [4]: 962282.9 nanomoles per gram | 14:0 (Heart, CE, mean): 4.3 percentage of total fatty acids within each lipid class | 16:0 (Heart, CE, mean): 14.6 percentage of total fatty acids within each lipid class | 16:1n7 (Heart, CE, mean): 3.4 percentage of total fatty acids within each lipid class | 18:0 (Heart, CE, mean): 6.4 percentage of total fatty acids within each lipid class | 18:1n7 (Heart, CE, mean): 1.3 percentage of total fatty acids within each lipid class | 18:1n9 (Heart, CE, mean): 25.5 percentage of total fatty acids within each lipid class | 14:0 [5]: 56.4 nanomoles per gram | 16:0 [5]: 198.8 nanomoles per gram | 16:1n7 [5]: 45.4 nanomoles per gram | 18:0 [5]: 89.0 nanomoles per gram | 18:1n7 [5]: 19.3 nanomoles per gram | 18:1n9 [5]: 370.9 nanomoles per gram | Saturates [5]: 379.2 nanomoles per gram | Total n7 [5]: 64.8 nanomoles per gram | Total n9 [5]: 383.4 nanomoles per gram | Total nMole of [5]: 1358.5 nanomoles per gram | 14:0 (Heart, CL, mean): 0.2 percentage of total fatty acids within each lipid class | 16:0 (Heart, CL, mean): 1.3 percentage of total fatty acids within each lipid class | 16:1n7 (Heart, CL, mean): 2.0 percentage of total fatty acids within each lipid class | 18:0 (Heart, CL, mean): 2.4 percentage of total fatty acids within each lipid class | 18:1n7 (Heart, CL, mean): 3.0 percentage of total fatty acids within each lipid class | 18:1n9 (Heart, CL, mean): 5.0 percentage of total fatty acids within each lipid class | Saturates (Heart, CL, mean): 4.1 percentage of total fatty acids within each lipid class | Total (Heart, CL, mean): 100.0 percentage of total fatty acids within each lipid class | Total n7 (Heart, CL, mean): 5.1 percentage of total fatty acids within each lipid class | Total n9 (Heart, CL, mean): 5.3 percentage of total fatty acids within each lipid class | 14:0 (Heart, FFA, mean): 2.1 percentage of total fatty acids within each lipid class | 16:0 (Heart, FFA, mean): 22.6 percentage of total fatty acids within each lipid class | 16:1n7 (Heart, FFA, mean): 3.0 percentage of total fatty acids within each lipid class | 18:0 (Heart, FFA, mean): 8.3 percentage of total fatty acids within each lipid class | 18:1n7 (Heart, FFA, mean): 3.6 percentage of total fatty acids within each lipid class | 18:1n9 (Heart, FFA, mean): 18.7 percentage of total fatty acids within each lipid class | Saturates (Heart, FFA, mean): 33.8 percentage of total fatty acids within each lipid class | Total (Heart, FFA, mean): 100.0 percentage of total fatty acids within each lipid class | Total n7 (Heart, FFA, mean): 6.6 percentage of total fatty acids within each lipid class | Total n9 (Heart, FFA, mean): 19.4 percentage of total fatty acids within each lipid class | 14:0 [6]: 52.4 nanomoles per gram | 16:0 [6]: 560.7 nanomoles per gram | 16:1n7 [6]: 73.6 nanomoles per gram | 18:0 [6]: 206.9 nanomoles per gram | 18:1n7 [6]: 90.0 nanomoles per gram | 18:1n9 [6]: 466.4 nanomoles per gram | Saturates [6]: 839.0 nanomoles per gram | Total n7 [6]: 163.6 nanomoles per gram | Total n9 [6]: 483.8 nanomoles per gram | Total nMole of [6]: 2482.9 nanomoles per gram | 14:0 (Heart, PC, mean): 0.2 percentage of total fatty acids within each lipid class | 16:0 (Heart, PC, mean): 29.2 percentage of total fatty acids within each lipid class | 16:1n7 (Heart, PC, mean): 1.0 percentage of total fatty acids within each lipid class | 18:0 (Heart, PC, mean): 11.6 percentage of total fatty acids within each lipid class | 18:1n7 (Heart, PC, mean): 4.0 percentage of total fatty acids within each lipid class | 18:1n9 (Heart, PC, mean): 10.7 percentage of total fatty acids within each lipid class | Saturates (Heart, PC, mean): 41.4 percentage of total fatty acids within each lipid class | Total (Heart, PC, mean): 100.0 percentage of total fatty acids within each lipid class | Total n7 (Heart, PC, mean): 5.0 percentage of total fatty acids within each lipid class | Total n9 (Heart, PC, mean): 10.9 percentage of total fatty acids within each lipid class | 14:0 [7]: 68.3 nanomoles per gram | 16:0 [7]: 8497.6 nanomoles per gram | 16:1n7 [7]: 289.1 nanomoles per gram | 18:0 [7]: 3392.4 nanomoles per gram | 18:1n7 [7]: 1154.7 nanomoles per gram | 18:1n9 [7]: 3120.1 nanomoles per gram | Saturates [7]: 12059.6 nanomoles per gram | Total n7 [7]: 1443.8 nanomoles per gram | Total n9 [7]: 3184.2 nanomoles per gram | Total nMole of [7]: 14579.5 nanomoles per gram | 14:0 (Heart, PS/I, mean): 0.3 percentage of total fatty acids within each lipid class | 16:0 (Heart, PS/I, mean): 5.2 percentage of total fatty acids within each lipid class | 16:1n7 (Heart, PS/I, mean): 0.4 percentage of total fatty acids within each lipid class | 18:0 (Heart, PS/I, mean): 33.6 percentage of total fatty acids within each lipid class | 18:1n7 (Heart, PS/I, mean): 1.4 percentage of total fatty acids within each lipid class | 18:1n9 (Heart, PS/I, mean): 5.1 percentage of total fatty acids within each lipid class | Saturates (Heart, PS/I, mean): 39.7 percentage of total fatty acids within each lipid class | Total (Heart, PS/I, mean): 100.0 percentage of total fatty acids within each lipid class | Total n7 (Heart, PS/I, mean): 1.8 percentage of total fatty acids within each lipid class | Total n9 (Heart, PS/I, mean): 5.8 percentage of total fatty acids within each lipid class | 14:0 [8]: 25.3 nanomoles per gram | 16:0 [8]: 515.0 nanomoles per gram | 16:1n7 [8]: 36.4 nanomoles per gram | 18:0 [8]: 3334.5 nanomoles per gram | 18:1n7 [8]: 143.9 nanomoles per gram | 18:1n9 [8]: 504.6 nanomoles per gram | Saturates [8]: 3945.4 nanomoles per gram | Total n7 [8]: 180.2 nanomoles per gram | Total n9 [8]: 572.9 nanomoles per gram | Total nMole of [8]: 4967.1 nanomoles per gram | 14:0 (Heart, TAG, mean): 3.0 percentage of total fatty acids within each lipid class | 16:0 (Heart, TAG, mean): 26.0 percentage of total fatty acids within each lipid class | 16:1n7 (Heart, TAG, mean): 4.9 percentage of total fatty acids within each lipid class | 18:0 (Heart, TAG, mean): 3.5 percentage of total fatty acids within each lipid class | 18:1n7 (Heart, TAG, mean): 3.2 percentage of total fatty acids within each lipid class | 18:1n9 (Heart, TAG, mean): 26.2 percentage of total fatty acids within each lipid class | 14:0 [9]: 160.8 nanomoles per gram | 16:0 [9]: 1597.3 nanomoles per gram | 16:1n7 [9]: 316.4 nanomoles per gram | 18:0 [9]: 173.5 nanomoles per gram | 18:1n7 [9]: 210.7 nanomoles per gram | 18:1n9 [9]: 1775.7 nanomoles per gram | Saturates [9]: 1993.9 nanomoles per gram | Total n7 [9]: 527.1 nanomoles per gram | Total n9 [9]: 1813.1 nanomoles per gram | Total nMole of [9]: 2014.7 nanomoles per gram | 14:0 (Liver, CE, mean): 1.9 percentage of total fatty acids within each lipid class | 16:0 (Liver, CE, mean): 48.0 percentage of total fatty acids within each lipid class | 16:1n7 (Liver, CE, mean): 11.8 percentage of total fatty acids within each lipid class | 18:0 (Liver, CE, mean): 3.5 percentage of total fatty acids within each lipid class | 18:1n7 (Liver, CE, mean): 2.3 percentage of total fatty acids within each lipid class | 18:1n9 (Liver, CE, mean): 19.9 percentage of total fatty acids within each lipid class | Saturates (Liver, CE, mean): 54.6 percentage of total fatty acids within each lipid class | Total (Liver, CE, mean): 100.0 percentage of total fatty acids within each lipid class | Total n7 (Liver, CE, mean): 14.1 percentage of total fatty acids within each lipid class | Total n9 (Liver, CE, mean): 20.5 percentage of total fatty acids within each lipid class | 14:0 [10]: 110.6 nanomoles per gram | 16:0 [10]: 2765.2 nanomoles per gram | 16:1n7 [10]: 678.5 nanomoles per gram
